The text below walks through data of patent publication US10485236B2, “Triazole derivatives, intermediates thereof and their use as fungicides” (Bayer CropScience Aktiengesellschaft, priority 2015, dated 2019).

Marks after values point to notes of the source that are not given here.

This data set is described as follows: Measurement of LogP values by HPLC on reversed phase columns (EEC directive 79/831 Annex V.A8). The data set is classed as physicochemical. The method, then: [table] If more than one Log P value is available within the same method, all the values are given and separated by “+”. Calibration was done with straight-chain alkan2-ones (with 3 to 16 carbon atoms) with known Log P values (measurement of Log P values using retention times with linear interpolation between successive alkanones). Lambda-max-values were determined using UV-spectra from 200 nm to 400 nm and the peak values of the chromatographic signals.
Regarding `CC(O)c1ccc(Oc2ccc(C(O)Cn3cncn3)c(Cl)n2)cc1` (mixture of isomers) [I.24], the LogP was 1.48^[a].
Take `CC(O)(Cn1cncn1)c1cnc(Oc2ccc(Cl)cc2)cc1Cl` (racemic) [I.08]: the LogP is 2.50^[a].
Turning to `CC(O)(Cn1cncn1)c1ccc(Oc2ccc(Cl)cc2)nc1Cl` (racemic) [I.09], the LogP was 2.66^[a].
Then `OC(Cn1cncn1)c1ccc(Oc2ccc(Cl)c(Cl)c2)nc1Cl` (racemic) [I.10], with 2.80^[a]; and `OC(Cn1cncn1)c1ccc(Oc2ccc(OC(F)(F)F)c(Cl)c2)nc1Cl` (racemic) [I.11], with 3.11^[a]; and `OC(Cn1cncn1)c1ccc(Oc2ccc(OC(F)(F)F)cc2)nc1Cl` (racemic) [I.12], with 2.73^[a].
Then `OC(Cn1cncn1)c1ccc(Oc2ccccc2)nc1Cl` (racemic) [I.13], with 1.98^[a].
Then `Cc1cc(Cl)ccc1Oc1ccc(C(O)Cn2cncn2)c(Cl)n1` (racemic) [I.15], with 2.75^[a]; and `OC(Cn1cncn1)c1ccc(Oc2ccc(F)cc2)nc1Cl` (racemic) [I.17], with 2.08^[a]; and `OC(Cn1cncn1)c1ccc(Oc2ccc(F)cc2F)nc1Cl` (racemic) [I.18], with 2.18^[a].
As for `OC(Cn1cncn1)c1ccc(Oc2ccccc2F)nc1Cl` (racemic) [I.19], the LogP is 2.08^[a].
The same measure for `OC(Cn1cncn1)c1ccc(Oc2cc(F)c(F)c(F)c2)nc1Cl` (racemic) [I.20]: 1.65^[a].
The same measure for `OC(Cn1cncn1)c1cnc(Oc2ccccc2)cc1Cl` (racemic) [I.21]: 1.92^[a].
On to `OC(Cn1cncn1)c1ncc(Oc2ccccc2)cc1Cl` (racemic) [I.22], for which the LogP is 2.01^[a].
The same measure for `OC(Cn1cncn1)c1ccc(Oc2ccc(Cl)cc2Cl)nc1Cl` (racemic) [I.23]: 2.75^[a]; for `OC(Cn1cncn1)c1ccc(Oc2ccc(Cl)cc2)nc1C(F)F` (racemic) [I.25]: 2.44^[a].
With `OC(Cn1cncn1)c1ccc(Oc2ccc(Cl)cc2)nc1OC(F)(F)F` (racemic) [I.26], the LogP is 2.92^[a].
The same measure for `CC(O)(Cn1cncn1)c1ccc(Oc2ccc(F)cc2)nc1Cl` (racemic) [I.27]: 2.28^[a]; for `Cc1cc(Cl)ccc1Oc1ccc(C(C)(O)Cn2cncn2)c(Cl)n1` (racemic) [I.28]: 2.94^[a]; for `COc1ccc(Oc2ccc(C(O)Cn3cncn3)c(Cl)n2)c(Cl)c1` (racemic) [I.30]: 2.32^[a].
As for `COc1ccc(Oc2ccc(C(C)(O)Cn3cncn3)c(Cl)n2)c(Cl)c1` (racemic) [I.31], the LogP was 2.56^[a].
Then `CC(O)(Cn1cncn1)c1ccc(Oc2ccc(Cl)c(Cl)c2)nc1Cl` (racemic) [I.32], with 3.09^[a].
Then `CC(O)(Cn1cncn1)c1ccc(Oc2ccc(Cl)cc2)nc1OC(F)(F)F` (racemic) [I.33], with 3.29^[a]; and `OC(Cn1cncn1)c1ccc(Oc2ccc(S(F)(F)(F)(F)F)cc2)nc1Cl` (racemic) [I.34], with 2.90^[a]; and `CC(O)(Cn1cncn1)c1ccc(Oc2ccc(Br)cc2)nc1C(F)(F)F` (racemic) [I.59], with 2.94^[a].
The same measure for `OC(Cn1cncn1)(c1ccc(Oc2ccc(Br)cc2)nc1C(F)(F)F)C1CC1` (racemic) [I.81]: 3.70^[a].
On to `OC(Cn1cncn1)(c1ccc(Oc2ccc(Br)cc2)nc1C(F)(F)F)C1CC1` (single isomer, unassigned) [Example 1.84], for which the LogP was 3.41^[a].
The same measure for `CC(O)(Cn1cncn1)c1cnc(Oc2ccc(Cl)cc2)cc1C(F)(F)F` (single isomer, unassigned) [I.46]: 2.93^[a].
On to `CC(O)(Cn1cncn1)c1ccc(Oc2ccc(Cl)cc2)nc1Cl` (single isomer, unassigned) [I.51], for which the LogP was 2.62^[a].
Then `CC(O)(Cn1cncn1)c1ccc(Oc2ccc(Cl)cc2)nc1Cl` (single isomer, unassigned) [I.52], with 2.62^[a]; and `CC(O)(Cn1cncn1)c1cnc(Oc2ccc(Cl)cc2)cc1Cl` (single isomer, unassigned) [I.53], with 2.53^[a].
The same measure for `CC(O)(Cn1cncn1)c1cnc(Oc2ccc(Cl)cc2)cc1Cl` (single isomer, unassigned) [I.54]: 2.53^[a].
Then `OC(Cn1cncn1)c1ccc(Oc2ccc(C(F)(F)F)cc2)nc1C(F)(F)F` (single isomer, unassigned) [I.72], with 2.86^[a].
In the case of `OC(Cn1cncn1)c1cnc(Oc2ccc(S(F)(F)(F)(F)F)cc2)cc1C(F)(F)F` (single isomer, unassigned) [I.83], the LogP was 3.11^[a].
Consider `OC(Cn1cncn1)c1cnc(Oc2ccc(S(F)(F)(F)(F)F)cc2)cc1C(F)(F)F` (single isomer, unassigned) [I.86], for which the LogP was 3.11^[a].
In the case of `OC(Cn1cncn1)c1cnc(Oc2ccc(C(F)(F)F)cc2)cc1C(F)(F)F` (single isomer, unassigned) [I.92], the LogP is 2.86^[a].
The same measure for `OC(Cn1cncn1)(c1ccc(Oc2ccc(Br)cc2)nc1C(F)(F)F)C1CC1` (single isomer, unassigned) [I.99]: 3.41^[a]; for `CC(O)(Cn1cncn1)c1ccc(Oc2ccc(Br)cc2)nc1C(F)(F)F` (single isomer, unassigned) [I.101]: 2.94^[a].
As to `CC(O)(Cn1cncn1)c1ccc(Oc2ccc(Br)cc2)nc1C(F)(F)F` (single isomer, unassigned) [I.102], the LogP was 2.94^[a].
Then `CC(O)(Cn1cncn1)c1cnc(Oc2ccc(S(F)(F)(F)(F)F)cc2)cc1C(F)(F)F` (centres unmarked) [I.37], with 3.33^[a].
In the case of `OC(Cn1cncn1)c1ccc(Oc2ccc(C(F)F)cc2)nc1Cl` (centres unmarked) [I.38], the LogP is 2.17^[a].
The same measure for `OC(Cn1cncn1)c1ccc(Oc2ccc(Br)cc2)nc1C(F)(F)F` (centres unmarked) [I.40]: 2.82^[a]; for `OC(Cn1cncn1)c1ccc(Oc2ccc(Cl)cc2)nc1F` (centres unmarked) [I.41]: 2.23^[a]; for `CC(O)(Cn1cncn1)c1ccc(Oc2ccc(Cl)cc2)nc1F` (centres unmarked) [I.42]: 2.46^[a].
The same measure for `OC(Cn1cncn1)c1cnc(Oc2ccc(OC(F)(F)F)cc2)cc1C(F)(F)F` (centres unmarked) [I.43]: 3.00^[a]; for `CC(O)(Cn1cncn1)c1cnc(Oc2ccc(OC(F)(F)F)cc2)cc1C(F)(F)F` (centres unmarked) [I.44]: 3.23^[a].
For the compound `OC(Cn1cncn1)c1cnc(Oc2ccc(Br)cc2)cc1C(F)(F)F` (centres unmarked) [I.48], the LogP was 2.75^[a].
`CC(O)(Cn1cncn1)c1cnc(Oc2ccc(Br)cc2)cc1C(F)(F)F` (centres unmarked) [I.49]: the LogP was 2.96^[a].
Take `CC(O)(Cn1cncn1)c1cnc(Oc2ccc(C(F)(F)F)cc2)cc1C(F)(F)F` (centres unmarked) [I.50]: the LogP was 3.11^[a].
As for `OC(Cn1cncn1)c1cnc(Oc2ccc(C(F)F)cc2)cc1C(F)(F)F` (centres unmarked) [I.55], the LogP was 2.55^[a].
As for `CC(O)(Cn1cncn1)c1cnc(Oc2ccc(C(F)F)cc2)cc1C(F)(F)F` (centres unmarked) [I.56], the LogP was 2.73^[a].
The same measure for `OC(Cn1cncn1)c1cnc(Oc2ccc(Cl)cc2F)cc1C(F)(F)F` (centres unmarked) [I.57]: 2.86^[a]; for `CC(O)(Cn1cncn1)c1cnc(Oc2ccc(Cl)cc2F)cc1C(F)(F)F` (centres unmarked) [I.58]: 3.02^[a].
Then `OC(Cn1cncn1)c1ccc(Oc2ccc(S(F)(F)(F)(F)F)cc2)nc1C(F)(F)F` (centres unmarked) [I.60], with 3.08^[a].
The same measure for `OC(Cn1cncn1)c1ccc(Oc2ccc(C(F)(F)F)cc2)nc1C(F)(F)F` (centres unmarked) [I.61]: 2.84^[a].
Take `CC(O)(Cn1cncn1)c1ccc(Oc2ccc(S(F)(F)(F)(F)F)cc2)nc1C(F)(F)F` (centres unmarked) [I.62]: the LogP is 3.25^[a].
Then `OC(Cn1cncn1)c1cnc(Oc2ccc(Br)cc2)cc1C(F)F` (centres unmarked) [I.63], with 2.59^[a]; and `CC(O)(Cn1cncn1)c1cnc(Oc2ccc(Cl)cc2)cc1C(F)F` (centres unmarked) [I.64], with 2.68^[a]; and `CC(O)(Cn1cncn1)c1ccc(Oc2ccc(C(F)(F)F)cc2)nc1C(F)(F)F` (centres unmarked) [I.65], with 3.04^[a].
As to `CC(O)(Cn1cncn1)c1ccc(Oc2ccc(Cl)cc2F)nc1C(F)(F)F` (centres unmarked) [I.66], the LogP is 2.80^[a].
As for `CC(O)(Cn1cncn1)c1ccc(Oc2ccc(Cl)cc2)nc1C(F)(F)F` (centres unmarked) [I.67], the LogP is 2.68^[a].
The same measure for `OC(Cn1cncn1)c1cnc(Oc2ccc(Cl)cc2)cc1Cl` (centres unmarked) [I.68]: 2.48^[a]; for `C=CC(O)(Cn1cncn1)c1cnc(Oc2ccc(C(F)(F)F)cc2)cc1C(F)(F)F` (centres unmarked) [I.69]: 3.33^[a]; for `OC(Cn1cncn1)c1ccc(Oc2ccc(Cl)cc2F)nc1C(F)(F)F` (centres unmarked) [I.70]: 2.78^[a].
The same measure for `OC(Cn1cncn1)(c1ccc(Oc2ccc(Cl)cc2)nc1C(F)(F)F)C1CC1` (centres unmarked) [I.71]: 3.35^[a]; for `OC(Cn1cncn1)c1ccc(Oc2ccc(Br)cc2)nc1C(F)F` (centres unmarked) [I.73]: 2.50^[a].
Take `OC(Cn1cncn1)c1ccc(Oc2ccc(C(F)F)cc2)nc1C(F)(F)F` (centres unmarked) [I.74]: the LogP is 2.49^[a].
Then `CC(C)c1ccc(Oc2ccc(C(C)(O)Cn3cncn3)c(C(F)(F)F)n2)cc1` (centres unmarked) [I.75], with 3.35^[a].
With `CCC(O)(Cn1cncn1)c1cnc(Oc2ccc(C(F)(F)F)cc2)cc1C(F)(F)F` (centres unmarked) [I.76], the LogP is 3.52^[a].
`CC(O)(Cn1cncn1)c1ccc(Oc2ccc(F)cc2)nc1Oc1ccc(F)cc1` (centres unmarked) [I.77]: the LogP is 3.13^[a].
Take `CC(O)(Cn1cncn1)c1cnc(Oc2ccc(C(F)(F)F)cc2)cc1Cl` (centres unmarked) [I.78]: the LogP is 2.88^[a].
The same measure for `OC(Cn1cncn1)c1ccc(Oc2ccc(OC(F)(F)F)cc2)nc1C(F)(F)F` (centres unmarked) [I.79]: 2.89^[a].
With `OC(Cn1cncn1)(c1ccc(Oc2ccc(Cl)cc2)nc1C(F)(F)F)C1CC1` (centres unmarked) [I.80], the LogP is 3.32^[a].
`CC(O)(Cn1cncn1)c1cnc(Oc2ccc(Br)cc2)cc1C(F)F` (centres unmarked) [I.82]: the LogP is 2.78^[a].
